The results in this text go back to patent US20250026778A1 (TIUMBIO CO., LTD., priority 2021, published 2025).

Bounds are passed on as bounds.

T1 sequence (P17931 whole entry): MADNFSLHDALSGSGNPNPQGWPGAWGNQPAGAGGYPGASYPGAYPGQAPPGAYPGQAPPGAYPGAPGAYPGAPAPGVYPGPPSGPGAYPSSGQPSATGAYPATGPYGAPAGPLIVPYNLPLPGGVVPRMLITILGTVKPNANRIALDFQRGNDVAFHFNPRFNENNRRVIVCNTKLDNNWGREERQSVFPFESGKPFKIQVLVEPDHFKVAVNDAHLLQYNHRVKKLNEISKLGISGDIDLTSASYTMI

The first test concerns the target T1, his-galectin-3 (Homo sapiens, UniProt P17931).
T1 construct: purchased Abcam
Description: TR-FRET assay (in vitro galectin-3 binding inhibitory activity test). The conditions noted are these: Table 1; compound at 20 μM; 60 nM his-galectin-3, 15 nM biotin-ASF; read-out: % Inhibitory activity (at 20 μM). The procedure: TR-FRET Assay (In Vitro Galectin-3 Binding Inhibitory Activity Test)
TR-FRET assay was performed in ½ Area Plate-96 (PerkinElmer). Final concentrations of components in the assay were 60 nM his-galectin-3 (Abcam), 15 nM biotin-ASF (Axxora), 2 nM Mab anti-6×His Tb (Cisbio) and 20 nM SA-d2 (Cisbio). The reaction was performed in a buffer containing 25 mM HEPES, 100 mM NaCl, 0.005% Tween 20 and 0.05% BSA. 20 μL his-galectin-3 and 1 μL compound were mixed first, and then 20 μL biotin-ASF, 5 μL anti-His Tb and 5 μL SA-d2 were added in order. After incubation for at least 3.5 hours at RT, TR-FRET signals were measured at 615/665 nm […] wavelengths using a VICTOR Nivo (PerkinElmer). The positive control used DMSO instead of the compound, and the negative control excluded ASF-biotin. N-acetyl-D-lactosamine (LacNAc), an endogenous ligand unit of galectin-3, was evaluated together as a control substance to compare galectin-3 binding inhibitory activity.
(In TR-FRET formats the signal depends on donor and acceptor labels being close together.)
In the case of `OC[C@H]1O[C@@]2(CCCCO2)[C@H](OCC(F)F)[C@@H](n2cc(-c3cc(F)c(F)c(F)c3)nn2)[C@H]1O` [Compound A46, (2R,3R,4S,5R,6S)-5-(2,2-difluoroethoxy)-2-(hydroxymethyl)-4-(4-(3,4,5-trifluorophenyl)-1H-1,2,3-triazol-1-yl)-1,7-dioxaspiro[5.5]undecan-3-ol], the inhibition at 20 µM fell in the range of 25 to 50%.

As to `O=C(CC1CCCC1)N[C@@H]1CCO[C@]12O[C@H](CO)[C@H](O)[C@H](n1cc(-c3cc(F)c(F)c(F)c3)nn1)[C@H]2O` [Compound A108, 2-cyclopentyl-N-((4R,5S,7R,8R,9S,10R)-8,10-dihydroxy-7-(hydroxymethyl)-9-(4-(3,4,5-trifluorophenyl)-1H-1,2,3-triazol-1-yl)-1,6-dioxaspiro[4.5]decan-4-yl)acetamide], the inhibition at 20 µM was in the range of 25 to 50%.

For `OC[C@H]1O[C@@]2(CCCO2)[C@H](OCc2ccncc2)[C@@H](n2cc(-c3cc(F)c(F)c(F)c3)nn2)[C@H]1O` [Compound A18, (5S,7R,8R,9S,10R)-7-(hydroxymethyl)-10-(pyridin-4-ylmethoxy)-9-(4-(3,4,5-trifluorophenyl)-1H-1,2,3-triazol-1-yl)-1,6-dioxaspiro[4.5]decan-8-ol acetate], the inhibition at 20 µM lay in the range of 25 to 50%.

`OC[C@H]1O[C@]2(OCC[C@H]2NCC2CCCC2)[C@H](O)[C@@H](n2cc(-c3cc(F)c(F)c(F)c3)nn2)[C@H]1O` [Compound A104, (4R,5S,7R,8R,9S,10R)-4-((cyclopentylmethyl)amino)-7-(hydroxymethyl)-9-(4-(3,4,5-trifluorophenyl)-1H-1,2,3-triazol-1-yl)-1,6-dioxaspiro[4.5]decane-8,10-diol]: the inhibition at 20 µM is less than 25%.

Regarding `O=C(O[C@@H]1[C@@H](n2cc(-c3cc(F)c(F)c(F)c3)nn2)[C@@H](O)[C@@H](CO)O[C@@]12CCCCO2)c1cccc(C(F)(F)F)c1` [Compound A52, (2R,3R,4S,5R,6S)-3-hydroxy-2-(hydroxymethyl)-4-(4-(3,4,5-trifluorophenyl)-1H-1,2,3-triazol-1-yl)-1,7-dioxaspiro[5.5]undecan-5-yl 3-(trifluoromethyl)benzoate], the inhibition at 20 µM was less than 25%.

Regarding `OC[C@H]1OC2(CCCC2)[C@H](O)[C@@H](n2cc(-c3cc(F)c(F)c(F)c3)nn2)[C@H]1O` [Compound A101, (7R,8R,9S,10R)-7-(hydroxymethyl)-9-(4-(3,4,5-trifluorophenyl)-1H-1,2,3-triazol-1-yl)-6-oxaspiro[4.5]decane-8,10-diol], the inhibition at 20 µM fell in the range of 25 to 50%.

Take `COc1cccc(C(=O)O[C@@H]2[C@@H](n3cc(-c4cc(F)c(F)c(F)c4)nn3)[C@@H](O)[C@@H](CO)O[C@@]23CCCCO3)c1` [Compound A53, (2R,3R,4S,5R,6S)-3-hydroxy-2-(hydroxymethyl)-4-(4-(3,4,5-trifluorophenyl)-1H-1,2,3-triazol-1-yl)-1,7-dioxaspiro[5.5]undecan-5-yl 3-methoxybenzoate]: the inhibition at 20 µM lay in the range of 25 to 50%.

With `OC[C@H]1O[C@]2(OCC[C@H]2NCc2cccc(Cl)c2)[C@H](O)[C@@H](n2cc(-c3cc(F)c(F)c(F)c3)nn2)[C@H]1O` [Compound A86, (4R,5S,7R,8R,9S,10R)-4-((3-chlorobenzyl)amino)-7-(hydroxymethyl)-9-(4-(3,4,5-trifluorophenyl)-1H-1,2,3-triazol-1-yl)-1,6-dioxaspiro[4.5]decane-8,10-diol], the inhibition at 20 µM was greater than 75%.

In the case of `OC[C@H]1O[C@@]2(CCCO2)[C@H](O)[C@@H](n2cc(-c3cc(F)c(F)c(F)c3)nn2)[C@H]1O` [Compound A12, (5S,7R,8R,9S,10R)-7-(hydroxymethyl)-9-(4-(3,4,5-trifluorophenyl)-1H-1,2,3-triazol-1-yl)-1,6-dioxaspiro[4.5]decane-8,10-diol], the inhibition at 20 µM fell in the range of 25 to 50%.

On to `OC[C@H]1O[C@]2(OCC[C@H]2NCc2ccccc2O)[C@H](O)[C@@H](n2cc(-c3cc(F)c(F)c(F)c3)nn2)[C@H]1O` [Compound A125, (4R,5S,7R,8R,9S,10R)-4-((2-hydroxybenzyl)amino)-7-(hydroxymethyl)-9-(4-(3,4,5-trifluorophenyl)-1H-1,2,3-triazol-1-yl)-1,6-dioxaspiro[4.5]decane-8,10-diol], for which the inhibition at 20 µM was less than 25%.

In the case of `COc1cccc(C(=O)O[C@@H]2[C@@H](n3cc(-c4cc(F)c(F)c(F)c4)nn3)[C@@H](O)[C@@H](CO)O[C@@]23CCCO3)c1` [Compound A40, (5S,7R,8R,9S,10R)-8-hydroxy-7-(hydroxymethyl)-9-(4-(3,4,5-trifluorophenyl)-1H-1,2,3-triazol-1-yl)-1,6-dioxaspiro[4.5]decan-10-yl 3-methoxybenzoate], the inhibition at 20 µM was in the range of 25 to 50%.

Staying with this test, now noted: Table 2; compound at 20 μM; 60 nM his-galectin-3, 15 nM biotin-ASF; read-out: % Inhibitory activity (at 20 μM).
On to `OC[C@H]1O[C@]2(OCC[C@H]2/N=C\c2ccc3ccccc3c2O)[C@H](O)[C@@H](n2cc(-c3cc(F)c(F)c(F)c3)nn2)[C@H]1O` [Compound A203, (4R,5S,7R,8R,9S,10R)-7-(hydroxymethyl)-4-((Z)-((1-hydroxynaphthalen-2-yl)methylene)amino)-9-(4-(3,4,5-trifluorophenyl)-1H-1,2,3-triazol-1-yl)-1,6-dioxaspiro[4.5]decane-8,10-diol], for which the inhibition at 20 µM was 25 to 50%.

`COc1cc(C(=O)N[C@@H]2CCO[C@]23O[C@H](CO)[C@H](O)[C@H](n2cc(-c4cc(F)c(F)c(F)c4)nn2)[C@H]3O)c2ccccc2c1` [Compound A241, N-((4R,5S,7R,8R,9S,10R)-8,10-dihydroxy-7-(hydroxymethyl)-9-(4-(3,4,5-trifluorophenyl)-1H-1,2,3-triazol-1-yl)-1,6-dioxaspiro[4.5]decan-4-yl)-3-methoxy-1-naphthamide]: the inhibition at 20 µM is greater than 75%.

Turning to `Cc1cc(C(=O)N[C@@H]2CCO[C@]23O[C@H](CO)[C@H](O)[C@H](n2cc(-c4cc(F)c(F)c(F)c4)nn2)[C@H]3O)c2cc(Cl)ccc2n1` [Compound A229, 6-chloro-N-((4R,5S,7R,8R,9S,10R)-8,10-dihydroxy-7-(hydroxymethyl)-9-(4-(3,4,5-trifluorophenyl)-1H-1,2,3-triazol-1-yl)-1,6-dioxaspiro[4.5]decan-4-yl)-2-methylquinoline-4-carboxamide], the inhibition at 20 µM is greater than 75%.

Regarding `O=C(N[C@@H]1CCO[C@]12O[C@H](CO)[C@H](O)[C@H](n1cc(-c3cc(F)c(F)c(F)c3)nn1)[C@H]2O)C1CCc2ccccc21` (stereo partly drawn) [Compound A163, N-((4R,5S,7R,8R,9S,10R)-8,10-dihydroxy-7-(hydroxymethyl)-9-(4-(3,4,5-trifluorophenyl)-1H-1,2,3-triazol-1-yl)-1,6-dioxaspiro[4.5]decan-4-yl)-2,3-dihydro-1H-indene-1-carboxamide], the inhibition at 20 µM lay within 50 to 75%.

Consider `O=C(N[C@@H]1CCO[C@]12O[C@H](CO)[C@H](O)[C@H](n1cc(-c3cc(F)c(F)c(F)c3)nn1)[C@H]2O)c1csc2ccccc12` [Compound A157, N-((4R,5S,7R,8R,9S,10R)-8,10-dihydroxy-7-(hydroxymethyl)-9-(4-(3,4,5-trifluorophenyl)-1H-1,2,3-triazol-1-yl)-1,6-dioxaspiro[4.5]decan-4-yl)benzo[b]thiophene-3-carboxamide], for which the inhibition at 20 µM is greater than 75%.

As to `O=C(N[C@@H]1CCO[C@]12O[C@H](CO)[C@H](O)[C@H](n1cc(-c3cc(F)c(F)c(F)c3)nn1)[C@H]2O)c1cccc2ccc(Cl)cc12` [Compound A256, 7-chloro-N-((4R,5S,7R,8R,9S,10R)-8,10-dihydroxy-7-(hydroxymethyl)-9-(4-(3,4,5-trifluorophenyl)-1H-1,2,3-triazol-1-yl)-1,6-dioxaspiro[4.5]decan-4-yl)-1-naphthamide], the inhibition at 20 µM was greater than 75%.

For the compound `OC[C@H]1O[C@]2(OCC[C@H]2/N=C\c2c(O)ccc3ccccc23)[C@H](O)[C@@H](n2cc(-c3cc(F)c(F)c(F)c3)nn2)[C@H]1O` [Compound A202, (4R,5S,7R,8R,9S,10R)-7-(hydroxymethyl)-4-((Z)-((2-hydroxynaphthalen-1-yl)methylene)amino)-9-(4-(3,4,5-trifluorophenyl)-1H-1,2,3-triazol-1-yl)-1,6-dioxaspiro[4.5]decane-8,10-diol], the inhibition at 20 µM is less than 25%.

Still in this test, the particulars now being: Table 3, found values; compound at 20 μM; 60 nM his-galectin-3, 15 nM biotin-ASF; read-out: % Inhibitory activity (at 20 μM).
Take `OC[C@H]1O[C@]2(OCC[C@H]2NCc2cccc(Cl)c2)[C@H](O)[C@@H](n2cc(-c3cc(F)c(F)c(F)c3)nn2)[C@H]1O` [Compound A86, (4R,5S,7R,8R,9S,10R)-4-((3-chlorobenzyl)amino)-7-(hydroxymethyl)-9-(4-(3,4,5-trifluorophenyl)-1H-1,2,3-triazol-1-yl)-1,6-dioxaspiro[4.5]decane-8,10-diol]: the inhibition at 20 µM amounted to 80.3%.

The test is the same for the next values; noted with them: read-out: % Inhibitory activity (at 20 μM), Table 1; compound at 20 μM; 60 nM his-galectin-3, 15 nM biotin-ASF.
As to `CC(O[C@@H]1[C@@H](n2cc(-c3cc(F)c(F)c(F)c3)nn2)[C@@H](O)[C@@H](CO)O[C@@]12CCCO2)C(=O)O` (stereo partly drawn) [Compound A66, 2-(((5S,7R,8R,9S,10R)-8-hydroxy-7-(hydroxymethyl)-9-(4-(3,4,5-trifluorophenyl)-1H-1,2,3-triazol-1-yl)-1,6-dioxaspiro[4.5]decan-10-yl)oxy)propanoic acid], the inhibition at 20 µM lay in the range of 25 to 50%.

Still in this test, the particulars now being: read-out: % Inhibitory activity (at 20 μM), Table 2; compound at 20 μM; 60 nM his-galectin-3, 15 nM biotin-ASF.
As for `OC[C@H]1O[C@]2(OCC[C@H]2n2cc(-c3ccccc3)nn2)[C@H](O)[C@@H](n2cc(-c3cc(F)c(F)c(F)c3)nn2)[C@H]1O` [Compound A154, (4R,5S,7R,8R,9S,10R)-7-(hydroxymethyl)-4-(4-phenyl-1H-1,2,3-triazol-1-yl)-9-(4-(3,4,5-trifluorophenyl)-1H-1,2,3-triazol-1-yl)-1,6-dioxaspiro[4.5]decane-8,10-diol], the inhibition at 20 µM lay within 25 to 50%.
